In PubChem BioAssay AID330 (DTP/NCI, 2004) one finds T/C data, which are given here for 19 compounds.

Each structure is given as a SMILES string. Where “and” joins values, the source holds several entries; their conditions need not be identical. Identical values can stand only once. Inconclusive results and toxic doses are left out.

The assay concerns P388 leukemia ip, CD2F1 mice, survival T/C. Description: NCI In Vivo Anticancer Drug Screen. Data for tumor model P388 Leukemia (intraperitoneal) in CD2F1 (CDF1) mice. Particulars: endpoint: median survival time, higher = longer survival. In a few lines: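 Mice carrying the transplanted tumor received test compound or vehicle. Survival was recorded in each group, and the value is the treated-group measurement divided by that of the vehicle-treated control group.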

The mark [1] stands for this setting: dose: 100.0 mg/kg/injection, schedule: Q04DX002 (ip), vehicle: Klucel (hydroxypropylcellulose) (HPC).
Setting [2] is: dose: 200.0 mg/kg/injection, schedule: Q04DX002 (ip), vehicle: Klucel (hydroxypropylcellulose) (HPC).
Where [3] appears, read: dose: 12.5 mg/kg/injection, schedule: Q01DX009 (ip), vehicle: saline with Tween-80.
The mark [4] stands for this setting: dose: 50.0 mg/kg/injection, schedule: Q01DX005 (ip), vehicle: Klucel (hydroxypropylcellulose) (HPC).
Setting [5] is: dose: 100.0 mg/kg/injection, schedule: Q01DX005 (ip), vehicle: Klucel (hydroxypropylcellulose) (HPC).
Setting [6] is: dose: 200.0 mg/kg/injection, schedule: Q01DX005 (ip), vehicle: Klucel (hydroxypropylcellulose) (HPC).
Where [7] appears, read: dose: 50.0 mg/kg/injection, schedule: Q01DX005 (ip), vehicle: saline.
Where [8] appears, read: dose: 100.0 mg/kg/injection, schedule: Q01DX005 (ip), vehicle: saline.
Setting [9] is: dose: 200.0 mg/kg/injection, schedule: Q01DX005 (ip), vehicle: saline.
The mark [10] stands for this setting: dose: 1.56 mg/kg/injection, schedule: Q01DX009 (ip), vehicle: saline with Tween-80.
Setting [11] is: dose: 3.12 mg/kg/injection, schedule: Q01DX009 (ip), vehicle: saline with Tween-80.
The mark [12] stands for this setting: dose: 6.25 mg/kg/injection, schedule: Q01DX009 (ip), vehicle: saline with Tween-80.

With `CCOP(=O)(O)C1CCCC(C)[N-]1.CCOP(=O)(O)C1CCCC(C)[N-]1.CCOP(=O)(O)C1CCCC(C)[N-]1.[Ti+3]` (stereo unspecified), the T/C by setting is: (dose: 50.0 mg/kg/injection, schedule: Q01DX001 (ip), vehicle: suspension in saline) 94 % of control; (dose: 100.0 mg/kg/injection, schedule: Q01DX001 (ip), vehicle: suspension in saline) 99 % of control; (dose: 200.0 mg/kg/injection, schedule: Q01DX001 (ip), vehicle: suspension in saline) 88 % of control.
Turning to `Cc1nc2n(c1C(N)=O)CCS2`, the T/C is 101 % of control (dose: 50.0 mg/kg/injection, schedule: Q01DX001 (ip), vehicle: Klucel (hydroxypropylcellulose) (HPC)); 96 % of control (dose: 60.0 mg/kg/injection, schedule: Q01DX005 (ip), vehicle: Klucel (hydroxypropylcellulose) (HPC)); 106 % of control (dose: 100.0 mg/kg/injection, schedule: Q01DX001 (ip), vehicle: Klucel (hydroxypropylcellulose) (HPC)); 102 % of control under setting [1]; 98 % of control (dose: 120.0 mg/kg/injection, schedule: Q01DX005 (ip), vehicle: Klucel (hydroxypropylcellulose) (HPC)); 99 % of control (dose: 200.0 mg/kg/injection, schedule: Q01DX001 (ip), vehicle: Klucel (hydroxypropylcellulose) (HPC)). The T/C by setting is: under setting [2], 104 % of control; (dose: 240.0 mg/kg/injection, schedule: Q01DX005 (ip), vehicle: Klucel (hydroxypropylcellulose) (HPC)) 94 % of control.
For the compound `O=[N+]([O-])c1ccc(Sc2ccncn2)c([N+](=O)[O-])c1`, the T/C runs as follows: under setting [3], 91 % of control; (dose: 25.0 mg/kg/injection, schedule: Q01DX009 (ip), vehicle: saline with Tween-80) 116 % of control; (dose: 50.0 mg/kg/injection, schedule: Q01DX009 (ip), vehicle: saline with Tween-80) 123 % of control; (dose: 100.0 mg/kg/injection, schedule: Q01DX009 (ip), vehicle: saline with Tween-80) 116 % of control.
Regarding `C[CH2][Sn]([CH2]C)([n]1cnc2ccccc21)[n]1cnc2ccccc21`, the T/C (dose: 1.56 mg/kg/injection, schedule: Q01DX005 (ip), vehicle: Klucel (hydroxypropylcellulose) (HPC)) was 120 % of control; the T/C (dose: 3.12 mg/kg/injection, schedule: Q01DX005 (ip), vehicle: Klucel (hydroxypropylcellulose) (HPC)) is 123 % of control; the T/C (dose: 6.25 mg/kg/injection, schedule: Q01DX005 (ip), vehicle: Klucel (hydroxypropylcellulose) (HPC)) was 109 % of control and 122 % of control.
As to `CC1=C(O)C(=O)[C@@H]2O[C@@H]2C1=O`, the T/C was 111 % of control (dose: 1.5 mg/kg/injection, schedule: Q01DX007 (ip), vehicle: saline); 122 % of control (dose: 3.0 mg/kg/injection, schedule: Q01DX007 (ip), vehicle: saline); 122 % of control (dose: 6.0 mg/kg/injection, schedule: Q01DX007 (ip), vehicle: saline).
For `C=C(Cl)C(=NC(C)(C)C)Nc1ccc(C(=O)OCC)cc1`, the T/C under setting [4] is 103 % of control, the T/C under setting [5] was 100 % of control and the T/C under setting [6] was 118 % of control.
Turning to `CC(C)CC(NC(=O)C(Cc1ccccc1)NC(=O)CNC(=O)CNC(=O)C(N)Cc1ccc(O)cc1)C(N)=O` (stereo unspecified), the T/C is, setting by setting: (dose: 8.75 mg/kg/injection, schedule: Q01DX005 (ip), vehicle: saline) 108 % of control; (dose: 17.5 mg/kg/injection, schedule: Q01DX005 (ip), vehicle: saline) 110 % of control; (dose: 35.0 mg/kg/injection, schedule: Q01DX005 (ip), vehicle: saline) 104 % of control; (dose: 70.0 mg/kg/injection, schedule: Q01DX005 (ip), vehicle: saline) 112 % of control; (dose: 140.0 mg/kg/injection, schedule: Q01DX005 (ip), vehicle: saline) 108 % of control.
On to `O=Cc1cccc2[nH]ccc12`, for which the T/C was 102 % of control under setting [4], 99 % of control under setting [5] and 96 % of control under setting [6].
Turning to `CC(CO)(CO)N(CCO)CCO`, the T/C reads like this: under setting [7], 101 % of control; under setting [8], 101 % of control; under setting [9], 99 % of control.
Consider `C=C1C(=O)O[C@@H]2[C@H](O)[C@@H](C)[C@@H]3C=CC(=O)[C@@]3(C)[C@H](OC(=O)C=C(C)C)[C@H]12`, for which the T/C is 121 % of control under setting [10]; 120 % of control under setting [11]; 151 % of control (dose: 3.12 mg/kg/injection, schedule: Q01DX009 (ip), vehicle: saline); 117 % of control and 121 % of control under setting [12]; 107 % of control and 121 % of control under setting [3]; 150 % of control (dose: 12.5 mg/kg/injection, schedule: Q01DX009 (ip), vehicle: saline).
As to `CCOC(=O)CNC(C)c1ccc(F)cc1` (stereo unspecified), the T/C by setting is: under setting [7], 100 % of control; under setting [8], 105 % of control; under setting [9], 103 % of control.
On to `COc1ccccc1OCC(O)CNc1ccc(Cl)cc1C(=O)c1ccccc1` (stereo unspecified), for which the T/C is, setting by setting: (dose: 60.0 mg/kg/injection, schedule: Q01DX005 (ip), vehicle: saline with Tween-80) 103 % of control; (dose: 120.0 mg/kg/injection, schedule: Q01DX005 (ip), vehicle: saline with Tween-80) 105 % of control; (dose: 240.0 mg/kg/injection, schedule: Q01DX005 (ip), vehicle: saline with Tween-80) 94 % of control.
For `[O]=[Mo](=[O])=[O]`, the T/C is 100 % of control (dose: 60.0 mg/kg/injection, schedule: Q01DX005 (ip), vehicle: saline); 110 % of control (dose: 120.0 mg/kg/injection, schedule: Q01DX005 (ip), vehicle: saline); 115 % of control (dose: 240.0 mg/kg/injection, schedule: Q01DX005 (ip), vehicle: saline).
Turning to `CCCCCCC(=O)CC(SCCN)c1ccccc1Cl` (stereo unspecified), the T/C (dose: 3.75 mg/kg/injection, schedule: Q01DX005 (ip), vehicle: saline) is 100 % of control; the T/C (dose: 7.5 mg/kg/injection, schedule: Q01DX005 (ip), vehicle: saline) is 96 % of control; the T/C (dose: 15.0 mg/kg/injection, schedule: Q01DX005 (ip), vehicle: saline) was 97 % of control; the T/C (dose: 30.0 mg/kg/injection, schedule: Q01DX005 (ip), vehicle: saline) is 99 % of control.
Regarding `CCCC1(c2ccccc2)CCCC(C#N)C1=O` (stereo unspecified), the T/C under setting [1] was 104 % of control; the T/C under setting [2] was 107 % of control; the T/C (dose: 400.0 mg/kg/injection, schedule: Q04DX002 (ip), vehicle: Klucel (hydroxypropylcellulose) (HPC)) was 106 % of control.
With `CCc1ccc(C2=C(Cl)C(=O)C(c3ccccc3)=C(Cl)C2=O)cc1`, the T/C is 98 % of control (dose: 12.5 mg/kg/injection, schedule: Q01DX005 (ip), vehicle: Klucel (hydroxypropylcellulose) (HPC)); 93 % of control (dose: 25.0 mg/kg/injection, schedule: Q01DX005 (ip), vehicle: Klucel (hydroxypropylcellulose) (HPC)); 93 % of control and 98 % of control under setting [4].
Consider `Oc1c(Cl)cc(Cl)cc1CN1CCOCC1`, for which the T/C is, setting by setting: (dose: 50.0 mg/kg/injection, schedule: Q01DX009 (ip), vehicle: suspension in saline) 89 % of control; (dose: 100.0 mg/kg/injection, schedule: Q01DX009 (ip), vehicle: suspension in saline) 87 % of control; (dose: 200.0 mg/kg/injection, schedule: Q01DX009 (ip), vehicle: suspension in saline) 98 % of control; (dose: 400.0 mg/kg/injection, schedule: Q01DX009 (ip), vehicle: suspension in saline) 109 % of control.
As to `O=C1OCCN1/N=C/C=N/N1CCOC1=O`, the T/C is, setting by setting: under setting [10], 95 % of control; under setting [11], 95 % of control; under setting [12], 105 % of control.
Turning to `CC(=O)[C@]1(O)Cc2c(O)c3c(c(O)c2[C@@H](OC2CC(NC(=O)C(F)(F)F)C(O)C(C)O2)C1)C(=O)c1c(O)cccc1C3=O` (stereo partly specified), the T/C by setting is: (dose: 12.5 mg/kg/injection, schedule: Q04DX003 (ip), vehicle: water) 96 % of control; (dose: 25.0 mg/kg/injection, schedule: Q04DX003 (ip), vehicle: water) 118 % of control; (dose: 100.0 mg/kg/injection, schedule: Q04DX003 (ip), vehicle: water) 118 % of control; (dose: 200.0 mg/kg/injection, schedule: Q04DX003 (ip), vehicle: water) 214 % of control.
